What all share (assay type): biochemical
One test concerns grass DHS enzymes. As to the kind of experiment: DHS activity: effector inhibition. Conditions: 0.5 mM (FIGS. 4, 15, 17). How it is done:
As recent studies have shown that plant DHS enzymes are feedback-inhibited by multiple effector molecules^15, 16, we tested the effect of AAAs and another 14 related metabolites, including various intermediates of the shikimate pathway and the pathways downstream of AAAs, on Brachypodium DHS enzymes.
The DHS assay for UHPLC-MS quantification was set up using the same settings as described in the previous paragraph for the UV-based DHS assay, which guaranteed at least 10 minutes of reaction linearity. After a 10-minute incubation, 20 μL of the reactions (out of a total volume of 50 μL) were mixed into 80 μL of methanol, vortexed and transferred to vials for injection. Analysis of DAHP by UHPLC-MS was conducted using the same chromatographic settings as described for the UHPLC-MS analysis of soluble metabolites and compared with an authentic DAHP standard (Sta. Cruz biotechnology, cat. no. sc-216432).

In test [1] the target is T1, Brachypodium distachyon BdTyrA1, SEQ ID NO: 33, recombinant (Brachypodium distachyon, UniProt A0A2K2DMR9).
T1 construct: from genomic DNA
T1 sequence (A0A2K2DMR9 539-925): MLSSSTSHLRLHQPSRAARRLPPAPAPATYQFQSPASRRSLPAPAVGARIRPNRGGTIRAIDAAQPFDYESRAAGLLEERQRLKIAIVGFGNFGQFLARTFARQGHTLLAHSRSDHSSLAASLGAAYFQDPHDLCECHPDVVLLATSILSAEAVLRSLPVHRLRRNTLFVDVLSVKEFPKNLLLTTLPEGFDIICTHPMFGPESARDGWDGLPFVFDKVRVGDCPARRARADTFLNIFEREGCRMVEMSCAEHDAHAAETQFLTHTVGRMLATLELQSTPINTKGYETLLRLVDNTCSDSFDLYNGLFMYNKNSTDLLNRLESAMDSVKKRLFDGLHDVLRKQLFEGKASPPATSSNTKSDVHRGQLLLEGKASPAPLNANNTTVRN
The test can be described thus: TyrA arogenate dehydrogenase kinetics and tyrosine inhibition (340 nm). From the text:
(§1) Next, to study the biochemical properties of grass TyrA enzymes, we generated and characterized recombinant purified TyrA proteins from Brachypodium (BdTyrA) and Sorghum (SbTyrA), two distantly related grass species^43, 44. Whereas TyrA enzymes from dicot plants are generally NADP^+-dependent arogenate dehydrogenases^20, 39, 45, except for NADP^+-prephenate dehydrogenases in the legume family^40, 46, previous reports on the substrate preference of grass TyrA enzymes are inconclusive^17, 19. […] NAD^+-prephenate dehydrogenase activity was absent in all cases, ruling out a significant contamination of the enzyme preparations with the TyrA enzyme from E. coli^47.48.

Test [2] addresses T2, Sorghum bicolor SbTyrAnc (non-canonical TyrA), SEQ ID NO: 43, recombinant (Sorghum bicolor, UniProt C5Z447).
T2 construct: from cDNA
T2 sequence (C5Z447 56-382): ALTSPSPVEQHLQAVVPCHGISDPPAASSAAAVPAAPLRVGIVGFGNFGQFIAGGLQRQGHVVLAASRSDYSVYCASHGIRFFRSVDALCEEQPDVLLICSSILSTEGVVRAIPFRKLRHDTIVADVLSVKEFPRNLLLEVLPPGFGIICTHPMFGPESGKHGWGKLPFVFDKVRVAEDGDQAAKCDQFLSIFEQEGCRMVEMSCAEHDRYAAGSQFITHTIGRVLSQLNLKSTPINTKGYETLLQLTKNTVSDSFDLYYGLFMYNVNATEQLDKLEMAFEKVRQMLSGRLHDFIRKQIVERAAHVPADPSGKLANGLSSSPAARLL
The test is described as above.
Source text: as §1

One may read the Ki as a measure of affinity in units of concentration, obtained from inhibition or displacement. A word on the IC50: it is the midpoint of a concentration-inhibition curve. In the case of `N[C@@H](Cc1ccc(O)cc1)C(=O)O` [tyrosine], the “effect on grass DHS at 0.5 mM” value with grass DHS enzymes was “little effect”. For the same molecule, the Ki in test [1] was found to be 46 ± 3 µM; in test [2], 137 ± 44 µM. Besides, the “activity at 200 μM of tyrosine” value in test [1] (200 μM tyrosine) is “fully inactive”. The “mode of feedback inhibition by tyrosine” value in test [1] (FIG. 12) was “competitive”. In addition, the IC50 stood at 66 ± 2 µM in test [1] (IC50 (tyrosine), 0.5 mM arogenate, 1 mM NADP^+) and 406 ± 85 µM in test [2].

Values taken from patent US20250115926A1, “DEREGULATED DHS AND TYRA ENZYMES OF GRASSES ENABLE EFFICIENT PRODUCTION OF BOTH TYROSINE AND PHENYLALANINE” (Wisconsin Alumni Research Foundation, priority 2023, published 2025).
